Each structure is given as a SMILES string. Where “and” joins values, the source holds several entries; their conditions need not be identical. Equal values may be shown once. Entries after “also recorded” stand apart in the source; their conditions may differ. Read-outs that look alike come from different tables or passages of the source.

Series [1] can be described thus: Cytotoxicity assay (CellTiter-Glo, 24 h). It is filed as cell-based. Conditions: human, CC50 (50% loss of viability).
In series [2] the target is HCV NS3 (Hepatitis C virus genotype 2a, UniProt Q99IB8). It is filed as cell-based. Conditions: 1000 nM, 4 h.
A further series deals with DDB1∆B-CRBN (Homo sapiens, UniProt Q96SW2). Nature of the series: CRBN-binding assay (fluorescence polarization, displacement of Atto565-lenalidomide). Conditions: fluorescence polarization competition. On the procedure: Measurement of compounds binding to CRBN was performed by fluorescence polarization. […] Compounds were dispensed using a D300e Digital Dispenser (HP), normalized to 1% DMSO, and incubated for 60 min at room temperature. The change in fluorescence polarization was monitored using a PHERAstar FS microplate reader (BMG Labtech) for 20 min in 200 s cycles. […]
Increasing concentrations of compounds were titrated to preformed DDB1∆B-CRBN-lenalidomideAtto565 complex. Data are presented as means normalized to DMSO ± standard deviation of n = 4 technical replicates. […]
d Measurement of NS3/4A protease inhibition in vitro. Cell lysates containing the endogenous NS3/4A protease were prepared from cells stably expressing an HCV […]
subgenomic replicon. […]

For series [3], the target named is HCV NS3-eGFP protein fusion (Hepatitis C virus genotype 2a, UniProt Q99IB8). It is filed as cell-based. The note with it: for NS3-eGFP/mCherry ratio normalized to DMSO, average / NS3-eGFP/mCherry ratio normalized to DMSO, single experiments: Fig. 2d; for DC50: 4 h treatment.
Series [4] deals with HCV NS3. It is filed as cell-based, hepatitis C virus. Conditions: 1000 nM, 4 h; selectivity.
A further series relates to wildtype HCV-Jc1. Nature of the series: microbe, parasite or virus in culture. It is filed as cell-based, hepatitis C virus.
A further series has as its system HCV-NS3-A156S. As to the kind of experiment: microbe, parasite or virus in culture. It is filed as cell-based, hepatitis C virus. Conditions: for change in antiviral potency, NS3-A156S vs wildtype: ratio of IC50 values.
Series [5] deals with T1, CRBN (Homo sapiens, UniProt Q96SW2). Nature of the series: Cellular thermal shift assay for CRBN engagement (HEK293T cells). It is filed as cell-based. The note with it: 1 h at 37 °C, heated at 61 °C, dose-response.
Series [6] has as its target T1, CRBN. Nature of the series: Competitive displacement assay for cellular CRBN engagement (rescue of dBET6-mediated BRD4BD2-eGFP degradation). The note with it: co-treated with 100 nM dBET6, 5 h. It is filed as cell-based.
Another series relates to HCV-JFH1-ad. Nature of the series: microbe, parasite or virus in culture. It is filed as cell-based, hepatitis C virus.
Another series concerns HCV-NS3-V55A. Nature of the series: microbe, parasite or virus in culture. It is filed as cell-based, hepatitis C virus.
A further series concerns Huh7.5-SGR cells. Nature of the series: Cytotoxicity assay (CellTiter-Glo, 24 h). It is filed as cell-based. The note with it: read-out: CC50 (50% loss of viability), single experiments, individual experiments.
The mark [7] stands for this setting: average value reported, averaged from n = 2.
The mark [8] stands for this setting: single experiments, individual experiments.
The mark [9] stands for this setting: 1000 nM compound + 5000 nM lenalidomide, 4 h.
Where [10] appears, read: Hepatitis C virus, Huh7.5, read-out: antiviral IC50, wildtype virus, average value reported, Huh7.5, MOI 0.1, treated 24 to 48 h post-infection.
[11] abbreviates: Hepatitis C virus, Huh7.5, read-out: antiviral IC50, wildtype virus, single experiments, Huh7.5, MOI 0.1, treated 24 to 48 h post-infection.
[12] abbreviates: read-out: antiviral IC50, wildtype virus, single experiments, Huh7.5, MOI 0.1, treated 24 to 48 h post-infection.
[13] abbreviates: Hepatitis C virus, Huh7.5, read-out: antiviral IC50, NS3-A156S virus, average value reported, Huh7.5, MOI 0.1, treated 24 to 48 h post-infection.
The mark [14] stands for this setting: Hepatitis C virus, Huh7.5, read-out: antiviral IC50, NS3-A156S virus, single experiments, Huh7.5, MOI 0.1, treated 24 to 48 h post-infection.
[15] abbreviates: read-out: antiviral IC50, NS3-A156S virus, single experiments, Huh7.5, MOI 0.1, treated 24 to 48 h post-infection.
[16] abbreviates: Hepatitis C virus, Huh7.5, read-out: antiviral IC50 (50% reduction in viral titers), average value reported, Huh7.5, MOI 0.1, treated 24 to 48 h post-infection, average of n ≥ 2 experiments.
Where [17] appears, read: read-out: antiviral IC50 (50% reduction in viral titers), single experiments, Huh7.5, MOI 0.1, treated 24 to 48 h post-infection, individual experiments.
Where [18] appears, read: Hepatitis C virus, Huh7.5, read-out: antiviral IC50, NS3-V55A virus, average value reported, Huh7.5, MOI 0.1, treated 24 to 48 h post-infection.
Where [19] appears, read: Hepatitis C virus, Huh7.5, read-out: antiviral IC50, NS3-V55A virus, single experiments, Huh7.5, MOI 0.1, treated 24 to 48 h post-infection.
[20] abbreviates: read-out: antiviral IC50, NS3-V55A virus, single experiments, Huh7.5, MOI 0.1, treated 24 to 48 h post-infection.

In the case of `CCC[C@H](NC(=O)[C@@H]1[C@H]2CCC[C@H]2CN1C(=O)[C@@H](NC(=O)[C@@H](NC(=O)c1cnc(C(=O)NCCOCCOCCOc2cc3c4c(cccc4c2)C(=O)N(C2CCC(=O)N(C)C2=O)C3=O)cn1)C1CCCCC1)C(C)(C)C)C(=O)C(=O)NC1CC1` (some centres unmarked) [DGY-08-097-BUMP], the CC50 at 24 h in [1] (setting [7]) and in [1] (setting [8]) was greater than 40000 nM throughout. Besides, the “change of HCV NS3 abundance vs DMSO (in words)” value at HCV NS3 [2] is given as “No significant degradation of HCV NS3 or any other cellular protein; also recorded: unaffected”. The “binding to CRBN (in words)” value at DDB1∆B-CRBN is “Neither DGY-04-035-BUMP nor DGY-08-097-BUMP exhibit detectable binding to CRBN; also recorded: loss of CRBN-binding”. Besides, the “NS3-eGFP/mCherry ratio normalized to DMSO, average” value stood at 0.96 in series [3] (setting [9]) and 0.92 in series [3] (1000 nM compound + DMSO, 4 h). The “NS3-eGFP/mCherry ratio normalized to DMSO, single experiments” value is 0.92 and 1.00 in series [3] (setting [9]); 0.92 in series [3] (1000 nM compound + DMSO, 4 h). Further, the “degradation of HCV NS3 in the transient assay (in words)” value in [3] (4 h, increasing concentrations) is on record as “neither compound induced degradation of HCV NS3”.
For `CCC[C@H](NC(=O)[C@@H]1[C@H]2CCC[C@H]2CN1C(=O)[C@@H](NC(=O)[C@@H](NC(=O)c1cnc(C(=O)NCCOCCOCCOc2cc3c4c(cccc4c2)C(=O)N(C2CCC(=O)NC2=O)C3=O)cn1)C1CCCCC1)C(C)(C)C)C(=O)C(=O)NC1CC1` (some centres unmarked) [DGY-08-097], the CC50 at 24 h in series [1] (setting [7]) and in series [1] (setting [8]) was greater than 40000 nM throughout. Moreover, the “degradation of IMiDs neo-substrates IKZF1 and IKZF3” value in the series on HCV NS3 [4] is reported as “no degradation”. Also, in the series on HCV NS3 [4], the “other proteins significantly affected (of ~8700 quantified)” value was “no other protein of the ~8700 quantified was observed to be significantly affected”. For the same compound, the IC50 with wildtype HCV-Jc1 (setting [10]) was 558 nM; in the series with wildtype HCV-Jc1 (setting [11]), 630 nM; in the series with wildtype HCV-Jc1 (setting [12]), 417 nM and 627 nM; with HCV-NS3-A156S (setting [13]), 1560 nM; in the series on HCV-NS3-A156S (setting [14]), 2020 nM; in the series with HCV-NS3-A156S (setting [15]), 1110 nM. Also, the IC50 was 748 nM with HCV-JFH1-ad (setting [16]); 706 nM and 627 nM and 425 nM and 1230 nM in the series with HCV-JFH1-ad (setting [17]); 508 nM in the series with HCV-NS3-V55A (setting [18]); 403 nM in the series with HCV-NS3-V55A (setting [19]); 380 nM and 742 nM in the series on HCV-NS3-V55A (setting [20]). Moreover, the “change in antiviral potency, NS3-A156S vs wildtype” value in the series with HCV-NS3-A156S was 3 fold. Besides, the “NS3-eGFP/mCherry ratio normalized to DMSO, average” value is listed as 0.60 in series [3] (setting [9]) and 0.24 in series [3] (1000 nM compound + DMSO, 4 h). Also, the “NS3-eGFP/mCherry ratio normalized to DMSO, single experiments” value in series [3] (setting [9]) was 0.62 and 0.58; in [3] (1000 nM compound + DMSO, 4 h), 0.23 and 0.25. In addition, the “concentrations at which a hook effect was observed in the transient NS3 degradation assay” value in series [3] (4 h) is listed as “above 1000 nM”. Moreover, the DC50 in series [3] (read-out: NS3-eGFP degradation DC50, average value reported, average of n ≥ 2 independent experiments) is 50 nM; in series [3] (read-out: NS3-eGFP degradation DC50, single experiments, individual experiments (source data)), 51 nM and 49 nM and 46 nM and 54 nM. Also, on CRBN [5], the “stabilization of CRBN in cellular thermal shift assay” value is recorded as “concentration-dependent stabilization of CRBN”. For the same compound, the EC50 on CRBN [6] is 703 nM.
`CCC[C@H](NC(=O)[C@@H]1[C@H]2CCC[C@H]2CN1C(=O)[C@@H](NC(=O)[C@@H](NC(=O)c1cnccn1)C1CCCCC1)C(C)(C)C)C(=O)C(=O)NC1CC1` [telaprevir, reference compound]: the CC50 at 24 h in series [1] (setting [7]) came out at 28000 nM; in [1] (setting [8]), 32000 nM. Besides, the CC50 in the series on Huh7.5-SGR cells was > 40000 nM and 24000 nM. The IC50 with wildtype HCV-Jc1 (setting [10]) was 98 nM; in the series on wildtype HCV-Jc1 (setting [11]) it was 110 nM; in the series on wildtype HCV-Jc1 (setting [12]) it was 72 nM and 111 nM; in the series with HCV-NS3-A156S (setting [13]), 949 nM; with HCV-NS3-A156S (setting [14]), 756 nM; in the series on HCV-NS3-A156S (setting [15]), 1140 nM. Besides, the IC50 is 132 nM in the series with HCV-JFH1-ad (setting [16]); 114 nM and 91 nM and 86 nM and 236 nM in the series on HCV-JFH1-ad (setting [17]); 288 nM with HCV-NS3-V55A (setting [18]); 190 nM in the series on HCV-NS3-V55A (setting [19]); 304 nM and 372 nM with HCV-NS3-V55A (setting [20]). Further, in the series on HCV-NS3-A156S, the “change in antiviral potency, NS3-A156S vs wildtype” value is on record as 10 fold. Besides, in the series on HCV-NS3-V55A (ratio of IC50 values), the “change in antiviral potency, NS3-V55A vs wildtype” value is 3 fold.

Usually CC50 stands for the concentration at which the toxic effect on the cells reaches its halfway point. The term IC50 denotes the midpoint of a concentration-inhibition curve. One may read the DC50 as the midpoint of the concentration-degradation curve. In general, EC50 refers to the concentration giving half of the maximal effect.

These data come from article PMC6672008, “Small molecule degraders of the hepatitis C virus protease reduce susceptibility to resistance mutations” (Nature Communications, 2019).
